The numbers were not newly measured in patent US20130164384A1, “METHODS OF TREATING BOWEL DISEASES BY ADMINISTERING A BOWEL CLEANSER AND AN ANTIBIOTIC” (Salix Pharmaceuticals, Ltd., priority 2008, published 2013), which cites them from elsewhere.

Read-outs that look alike come from different tables or passages of the source.

For this data set the following is noted: cited from earlier work.

In the case of `CC(=O)Oc1ccc(C(c2ccc(OC(C)=O)cc2)c2ccccn2)cc1` [Bisacodyl], the “Time to produce a bowel movement” value reads like this: (enemas) “about 20 minutes”; (suppositories) “about an hour”.
